Measured values published in the kinase profiling compilation of Christmann-Franck et al. (2016).

Legend:
Test in all cases: KINOMEscan competition binding
Details in all cases: compound 10.0 µM; call rule not given here
NTRK2 (human) = NTRK2 (human) (UniProt Q16620)
GAK (human) = GAK (human) (UniProt O14976)
LYN (human) = LYN (human) (UniProt P07948)
CDK2 (human) = CDK2 (human) (UniProt P24941)
GSK3A (human) = GSK3A (human) (UniProt P49840)
FGR (human) = FGR (human) (UniProt P09769)
BTK (human) = BTK (human) (UniProt Q06187)
AXL (human) = AXL (human) (UniProt P30530)
EPHA1 (human) = EPHA1 (human) (UniProt P21709)
CSNK1D (human) = CSNK1D (human) (UniProt P48730)
ULK3 (human) = ULK3 (human) (UniProt Q6PHR2)
CDK5 (human) = CDK5 (human) (UniProt Q00535)
[1] = tested on: EIF2AK4 KD2 (human), Q9P2K8 [S808G]
SRC (human) = SRC (human) (UniProt P12931)
EPHA5 (human) = EPHA5 (human) (UniProt P54756)
MAP4K4 (human) = MAP4K4 (human) (UniProt O95819)
MYLK2 (human) = MYLK2 (human) (UniProt Q9H1R3)
AURKC (human) = AURKC (human) (UniProt Q9UQB9)
MAP3K11 (human) = MAP3K11 (human) (UniProt Q16584)
PRKAA2 (human) = PRKAA2 (human) (UniProt P54646)
TNIK (human) = TNIK (human) (UniProt Q9UKE5)
STK11 (human) = STK11 (human) (UniProt Q15831)
[2] = biological target: JAK2 JH1 catalytic (human) (UniProt O60674)
EPHA3 (human) = EPHA3 (human) (UniProt P29320)
TNK1 (human) = TNK1 (human) (UniProt Q13470)
FRK (human) = FRK (human) (UniProt P42685)
CSNK1E (human) = CSNK1E (human) (UniProt P49674)
CLK2 (human) = CLK2 (human) (UniProt P49760)
STK38L (human) = STK38L (human) (UniProt Q9Y2H1)
MAP4K5 (human) = MAP4K5 (human) (UniProt Q9Y4K4)
PKN2 (human) = PKN2 (human) (UniProt Q16513)
BMP2K (human) = BMP2K (human) (UniProt Q9NSY1)
TESK1 (human) = TESK1 (human) (UniProt Q15569)
STK33 (human) = STK33 (human) (UniProt Q9BYT3)
CSF1R (human) = CSF1R (human) (UniProt P07333)
RET (human) = RET (human) (UniProt P07949)
ACVR2A (human) = ACVR2A (human) (UniProt P27037)
TNNI3K (human) = TNNI3K (human) (UniProt Q59H18)
STK10 (human) = STK10 (human) (UniProt O94804)
RAF1 (human) = RAF1 (human) (UniProt P04049)

Chain of TESK1 (human) (Q15569 whole entry, looked up): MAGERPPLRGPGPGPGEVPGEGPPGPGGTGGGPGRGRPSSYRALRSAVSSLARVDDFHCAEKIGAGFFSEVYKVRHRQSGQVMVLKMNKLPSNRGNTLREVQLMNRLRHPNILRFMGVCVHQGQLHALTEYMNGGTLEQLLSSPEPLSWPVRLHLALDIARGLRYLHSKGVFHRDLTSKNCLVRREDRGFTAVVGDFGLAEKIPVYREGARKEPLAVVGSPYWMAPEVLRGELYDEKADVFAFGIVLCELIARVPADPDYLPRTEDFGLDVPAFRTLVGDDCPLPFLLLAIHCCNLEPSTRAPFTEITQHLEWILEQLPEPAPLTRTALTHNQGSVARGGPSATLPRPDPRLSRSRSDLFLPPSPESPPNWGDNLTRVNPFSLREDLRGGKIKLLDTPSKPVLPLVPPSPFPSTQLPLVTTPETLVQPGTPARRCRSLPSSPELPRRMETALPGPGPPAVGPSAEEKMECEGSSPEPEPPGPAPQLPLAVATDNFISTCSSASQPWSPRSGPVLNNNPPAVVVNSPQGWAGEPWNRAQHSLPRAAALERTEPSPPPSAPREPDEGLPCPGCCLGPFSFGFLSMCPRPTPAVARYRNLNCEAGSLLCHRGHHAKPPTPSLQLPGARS
Chain of STK38L (human) (Q9Y2H1 whole entry, looked up): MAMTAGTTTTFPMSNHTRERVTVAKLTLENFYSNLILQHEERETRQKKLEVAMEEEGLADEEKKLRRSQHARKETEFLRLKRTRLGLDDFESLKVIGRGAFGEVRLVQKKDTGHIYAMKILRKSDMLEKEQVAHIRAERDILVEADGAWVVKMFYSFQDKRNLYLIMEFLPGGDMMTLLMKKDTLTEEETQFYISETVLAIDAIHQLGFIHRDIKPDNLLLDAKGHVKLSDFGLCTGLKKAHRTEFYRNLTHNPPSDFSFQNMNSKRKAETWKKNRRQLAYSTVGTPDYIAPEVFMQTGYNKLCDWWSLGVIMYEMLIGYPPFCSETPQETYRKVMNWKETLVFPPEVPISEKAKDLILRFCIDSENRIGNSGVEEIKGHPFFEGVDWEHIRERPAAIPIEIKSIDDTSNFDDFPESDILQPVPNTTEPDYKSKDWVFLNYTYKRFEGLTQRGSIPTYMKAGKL
Chain of LYN (human) (P07948 whole entry, looked up): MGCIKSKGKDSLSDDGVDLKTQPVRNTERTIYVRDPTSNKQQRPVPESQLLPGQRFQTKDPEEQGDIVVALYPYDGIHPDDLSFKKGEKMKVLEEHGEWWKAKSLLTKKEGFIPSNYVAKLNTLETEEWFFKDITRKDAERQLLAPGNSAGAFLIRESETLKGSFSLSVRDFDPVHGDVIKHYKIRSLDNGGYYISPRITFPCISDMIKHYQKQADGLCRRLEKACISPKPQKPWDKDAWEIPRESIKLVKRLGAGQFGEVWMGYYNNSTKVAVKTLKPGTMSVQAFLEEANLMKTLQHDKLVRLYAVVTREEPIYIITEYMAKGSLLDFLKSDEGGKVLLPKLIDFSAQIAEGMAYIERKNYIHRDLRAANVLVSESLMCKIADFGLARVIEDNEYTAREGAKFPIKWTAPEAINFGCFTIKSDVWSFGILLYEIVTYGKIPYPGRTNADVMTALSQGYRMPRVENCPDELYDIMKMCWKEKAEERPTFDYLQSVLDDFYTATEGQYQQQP
Chain of EIF2AK4 KD2 (human), Q9P2K8 [S808G] (Q9P2K8 whole entry S808G, looked up): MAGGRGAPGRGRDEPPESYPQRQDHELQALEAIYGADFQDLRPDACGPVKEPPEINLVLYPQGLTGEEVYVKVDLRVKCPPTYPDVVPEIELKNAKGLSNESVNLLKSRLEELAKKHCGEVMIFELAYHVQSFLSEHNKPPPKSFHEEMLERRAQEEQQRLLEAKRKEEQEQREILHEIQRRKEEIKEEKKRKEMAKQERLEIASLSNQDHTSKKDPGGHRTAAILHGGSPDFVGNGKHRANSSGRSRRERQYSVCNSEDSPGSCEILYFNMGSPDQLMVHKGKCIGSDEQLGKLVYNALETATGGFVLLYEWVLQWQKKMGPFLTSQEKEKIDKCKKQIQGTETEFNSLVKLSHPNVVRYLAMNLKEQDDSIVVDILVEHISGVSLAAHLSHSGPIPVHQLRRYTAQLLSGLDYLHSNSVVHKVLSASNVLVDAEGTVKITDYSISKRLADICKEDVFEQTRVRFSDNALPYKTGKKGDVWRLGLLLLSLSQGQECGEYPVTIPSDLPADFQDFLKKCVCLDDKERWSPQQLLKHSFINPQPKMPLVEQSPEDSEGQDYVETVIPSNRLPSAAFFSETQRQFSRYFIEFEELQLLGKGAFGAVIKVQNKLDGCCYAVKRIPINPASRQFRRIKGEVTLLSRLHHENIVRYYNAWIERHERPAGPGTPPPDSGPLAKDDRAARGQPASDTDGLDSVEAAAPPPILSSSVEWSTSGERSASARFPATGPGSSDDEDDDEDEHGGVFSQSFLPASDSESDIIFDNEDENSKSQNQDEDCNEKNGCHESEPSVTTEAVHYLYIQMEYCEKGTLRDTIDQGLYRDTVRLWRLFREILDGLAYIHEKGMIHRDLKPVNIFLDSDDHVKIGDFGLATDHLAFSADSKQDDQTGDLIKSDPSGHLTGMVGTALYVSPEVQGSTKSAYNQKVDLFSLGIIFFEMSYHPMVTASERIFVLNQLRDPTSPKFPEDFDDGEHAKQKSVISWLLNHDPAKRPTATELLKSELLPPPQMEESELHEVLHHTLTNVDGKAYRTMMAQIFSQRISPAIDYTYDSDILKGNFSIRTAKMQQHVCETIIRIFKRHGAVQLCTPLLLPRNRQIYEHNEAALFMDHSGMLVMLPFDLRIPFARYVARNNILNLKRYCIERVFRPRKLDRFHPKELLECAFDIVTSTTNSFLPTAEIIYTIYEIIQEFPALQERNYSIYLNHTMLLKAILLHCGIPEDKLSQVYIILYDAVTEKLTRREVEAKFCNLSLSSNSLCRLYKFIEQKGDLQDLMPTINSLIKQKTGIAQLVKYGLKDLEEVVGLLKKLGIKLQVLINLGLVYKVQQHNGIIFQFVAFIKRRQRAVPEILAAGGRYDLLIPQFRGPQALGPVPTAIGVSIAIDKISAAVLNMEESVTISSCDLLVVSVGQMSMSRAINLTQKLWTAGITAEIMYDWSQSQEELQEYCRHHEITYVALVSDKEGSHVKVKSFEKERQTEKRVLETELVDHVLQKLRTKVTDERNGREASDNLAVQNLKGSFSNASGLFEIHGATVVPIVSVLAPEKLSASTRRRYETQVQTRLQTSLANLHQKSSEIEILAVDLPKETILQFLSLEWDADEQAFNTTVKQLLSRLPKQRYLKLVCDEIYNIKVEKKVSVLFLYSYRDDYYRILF
Chain of ACVR2A (human) (P27037 whole entry, looked up): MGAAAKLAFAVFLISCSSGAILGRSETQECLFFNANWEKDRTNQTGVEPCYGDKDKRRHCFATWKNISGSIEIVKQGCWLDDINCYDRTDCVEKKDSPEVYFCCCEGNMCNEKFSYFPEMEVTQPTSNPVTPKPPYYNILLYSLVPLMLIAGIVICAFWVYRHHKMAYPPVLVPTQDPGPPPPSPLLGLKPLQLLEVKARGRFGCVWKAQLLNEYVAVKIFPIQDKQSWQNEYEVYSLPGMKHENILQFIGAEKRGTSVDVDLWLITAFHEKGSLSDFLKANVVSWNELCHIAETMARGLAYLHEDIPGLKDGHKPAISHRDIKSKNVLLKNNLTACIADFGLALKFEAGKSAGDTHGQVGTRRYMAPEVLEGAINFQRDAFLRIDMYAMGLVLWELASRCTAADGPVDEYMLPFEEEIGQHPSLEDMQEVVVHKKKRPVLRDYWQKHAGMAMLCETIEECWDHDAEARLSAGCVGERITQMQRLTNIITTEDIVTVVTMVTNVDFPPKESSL
Chain of CSNK1D (human) (P48730 whole entry, looked up): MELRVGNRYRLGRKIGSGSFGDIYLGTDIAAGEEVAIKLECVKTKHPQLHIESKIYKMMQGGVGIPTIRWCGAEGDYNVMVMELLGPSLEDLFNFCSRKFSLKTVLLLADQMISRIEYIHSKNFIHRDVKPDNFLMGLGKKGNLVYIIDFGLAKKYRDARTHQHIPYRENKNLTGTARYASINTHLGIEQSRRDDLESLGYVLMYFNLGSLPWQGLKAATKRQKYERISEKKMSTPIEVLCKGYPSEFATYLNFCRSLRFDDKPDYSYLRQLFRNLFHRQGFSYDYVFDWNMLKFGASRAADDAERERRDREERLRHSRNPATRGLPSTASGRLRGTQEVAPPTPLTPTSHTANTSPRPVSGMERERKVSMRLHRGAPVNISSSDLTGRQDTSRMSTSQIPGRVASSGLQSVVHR
Chain of CLK2 (human) (P49760 whole entry, looked up): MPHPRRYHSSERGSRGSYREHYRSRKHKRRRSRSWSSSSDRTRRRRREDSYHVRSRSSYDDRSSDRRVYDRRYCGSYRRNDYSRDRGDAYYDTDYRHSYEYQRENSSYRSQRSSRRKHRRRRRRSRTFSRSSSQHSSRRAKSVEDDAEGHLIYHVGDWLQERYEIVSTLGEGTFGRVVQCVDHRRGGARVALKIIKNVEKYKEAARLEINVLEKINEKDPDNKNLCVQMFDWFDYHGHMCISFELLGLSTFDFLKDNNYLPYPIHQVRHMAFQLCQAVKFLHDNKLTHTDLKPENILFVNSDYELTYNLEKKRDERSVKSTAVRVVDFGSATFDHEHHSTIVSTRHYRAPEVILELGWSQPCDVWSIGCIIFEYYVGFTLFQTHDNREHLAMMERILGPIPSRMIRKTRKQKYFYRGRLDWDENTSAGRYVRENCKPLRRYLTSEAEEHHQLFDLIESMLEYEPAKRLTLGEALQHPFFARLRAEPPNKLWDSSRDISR
Chain of CDK5 (human) (Q00535 whole entry, looked up): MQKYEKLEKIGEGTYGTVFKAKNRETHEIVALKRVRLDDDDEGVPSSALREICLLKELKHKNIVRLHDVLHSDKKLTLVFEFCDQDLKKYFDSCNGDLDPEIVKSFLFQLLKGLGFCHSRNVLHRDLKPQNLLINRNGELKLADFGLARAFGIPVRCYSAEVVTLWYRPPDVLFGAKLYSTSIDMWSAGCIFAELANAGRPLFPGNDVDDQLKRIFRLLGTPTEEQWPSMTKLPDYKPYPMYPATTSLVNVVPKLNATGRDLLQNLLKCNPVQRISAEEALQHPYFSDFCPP

| Structure (SMILES) | kinase still bound, per cent of control (NTRK2 (human)) | kinase still bound, per cent of control (GAK (human)) | kinase still bound, per cent of control (LYN (human)) | kinase still bound, per cent of control (CDK2 (human)) | kinase still bound, per cent of control (GSK3A (human)) | kinase still bound, per cent of control (FGR (human)) | kinase still bound, per cent of control (BTK (human)) | kinase still bound, per cent of control (AXL (human)) | kinase still bound, per cent of control (EPHA1 (human)) | kinase still bound, per cent of control (CSNK1D (human)) | kinase still bound, per cent of control (ULK3 (human)) | kinase still bound, per cent of control (CDK5 (human)) | kinase still bound, per cent of control [1] | kinase still bound, per cent of control (SRC (human)) | kinase still bound, per cent of control (EPHA5 (human)) | kinase still bound, per cent of control (MAP4K4 (human)) | kinase still bound, per cent of control (MYLK2 (human)) | kinase still bound, per cent of control (AURKC (human)) | kinase still bound, per cent of control (MAP3K11 (human)) | kinase still bound, per cent of control (PRKAA2 (human)) | also measured |
| --- | --- | --- | --- | --- | --- | --- | --- | --- | --- | --- | --- | --- | --- | --- | --- | --- | --- | --- | --- | --- | --- |
| Cc1ccc(NC(=O)c2cccc(N3CCCCC3)c2)cc1-c1ccc(C(=O)NCC2CC2)cc1 | no effect (inactive) | no effect (inactive) | no effect (inactive) | no effect (inactive) | no effect (inactive) | no effect (inactive) | no effect (inactive) | no effect (inactive) | no effect (inactive) | no effect (inactive) | no effect (inactive) | no effect (inactive) | no effect (inactive) | no effect (inactive) | no effect (inactive) | no effect (inactive) | no effect (inactive) | no effect (inactive) | no effect (inactive) | no effect (inactive) | kinase still bound, per cent of control (TNIK (human)): no effect (inactive); kinase still bound, per cent of control (STK11 (human)): no effect (inactive); kinase still bound, per cent of control [2]: no effect (inactive); kinase still bound, per cent of control (EPHA3 (human)): no effect (inactive); kinase still bound, per cent of control (TNK1 (human)): no effect (inactive); kinase still bound, per cent of control (FRK (human)): no effect (inactive); kinase still bound, per cent of control (CSNK1E (human)): no effect (inactive); kinase still bound, per cent of control (CLK2 (human)): no effect (inactive); kinase still bound, per cent of control (STK38L (human)): no effect (inactive); kinase still bound, per cent of control (MAP4K5 (human)): no effect (inactive); kinase still bound, per cent of control (PKN2 (human)): no effect (inactive); kinase still bound, per cent of control (BMP2K (human)): no effect (inactive); kinase still bound, per cent of control (TESK1 (human)): no effect (inactive); kinase still bound, per cent of control (STK33 (human)): no effect (inactive); kinase still bound, per cent of control (CSF1R (human)): no effect (inactive); kinase still bound, per cent of control (RET (human)): no effect (inactive); kinase still bound, per cent of control (ACVR2A (human)): no effect (inactive) |
| CCS(=O)(=O)Nc1ccc2c(c1)[C@H](/C(=N/c1ccc(CN3CCCCC3)cc1)c1ccccc1)C(=O)N2 | 0% | 2.7% | 0.2% | 28.3% | 0.85% | 0.1% | 0% | 0% | 0.2% | no effect (inactive) | 0% | 16.8% | 0% | 0% | 0% | 0.25% | 20.7% | 0.5% | 12.3% | 0% | kinase still bound, per cent of control (TNNI3K (human)): 7.6%; kinase still bound, per cent of control (STK10 (human)): 0%; kinase still bound, per cent of control (TNIK (human)): 0%; kinase still bound, per cent of control (STK11 (human)): 1%; kinase still bound, per cent of control [2]: 0.1%; kinase still bound, per cent of control (EPHA3 (human)): 0%; kinase still bound, per cent of control (TNK1 (human)): 1%; kinase still bound, per cent of control (FRK (human)): 0.5%; kinase still bound, per cent of control (RAF1 (human)): no effect (inactive); kinase still bound, per cent of control (CSNK1E (human)): 2.4%; kinase still bound, per cent of control (CLK2 (human)): 0%; kinase still bound, per cent of control (STK38L (human)): 0%; kinase still bound, per cent of control (MAP4K5 (human)): 0%; kinase still bound, per cent of control (PKN2 (human)): 3%; kinase still bound, per cent of control (BMP2K (human)): 0%; kinase still bound, per cent of control (TESK1 (human)): 10.8%; kinase still bound, per cent of control (STK33 (human)): 0%; kinase still bound, per cent of control (CSF1R (human)): 0%; kinase still bound, per cent of control (RET (human)): 0%; kinase still bound, per cent of control (ACVR2A (human)): 22.7% |
